According to publication PMC3344384 (Chemistry & biology, 2011):
Entries after “also recorded” stand apart in the source; their conditions may differ.

Key:
[1] = molecular target: T1, USP1/UAF1 (Homo sapiens, UniProt O94782); assay: gel-based K63-linked diubiquitin cleavage assay, USP1/UAF1; type: biochemical; conditions: IC50 USP1/UAF1, K63-linked diubiquitin substrate; NI = no significant inhibition at highest inhibitor concentration of 114 μM
[2] = molecular target: T2, papain (Carica papaya, UniProt P00784); assay: cysteine protease selectivity, papain; type: biochemical
T2 sequence (P00784 134-345): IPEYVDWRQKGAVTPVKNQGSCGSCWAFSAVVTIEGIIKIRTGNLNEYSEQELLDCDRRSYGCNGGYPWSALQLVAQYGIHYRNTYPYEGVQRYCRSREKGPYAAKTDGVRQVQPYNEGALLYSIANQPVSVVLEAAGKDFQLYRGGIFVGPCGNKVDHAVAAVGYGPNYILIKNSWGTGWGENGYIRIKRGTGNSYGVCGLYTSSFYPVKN

[3] = in vitro; conditions: human
[4] = molecular target: USP1/UAF1 complex (Homo sapiens, UniProt O94782+Q8TAF3); assay: native gel electrophoresis of USP1/UAF1 complex; conditions: incubation with inhibitor up to 10 × IC50
[5] = test system: Ub-FANCD2 in HEK293T cells; assay: Western blot of Ub-FANCD2 level in cells; type: cell-based, human
[6] = test system: Ub-PCNA in HEK293T cells; assay: Western blot of Ub-PCNA level in cells; type: cell-based, human
[7] = molecular target: T1, USP1/UAF1; assay: steady-state kinetics; type: biochemical
[8] = molecular target: USP1/UAF1 (Homo sapiens, UniProt O94782+Q8TAF3); assay: steady-state kinetics; type: biochemical; conditions: Lineweaver-Burk plots, K63-linked di-Ub substrate
[9] = test system: Ub-H2A in HEK293T cells; assay: histone H2A monoubiquitination in cells; type: cell-based, human; conditions: in the presence or absence of cisplatin

USP1/UAF1 (Homo sapiens, UniProt O94782+Q8TAF3), sequence (O94782 whole entry): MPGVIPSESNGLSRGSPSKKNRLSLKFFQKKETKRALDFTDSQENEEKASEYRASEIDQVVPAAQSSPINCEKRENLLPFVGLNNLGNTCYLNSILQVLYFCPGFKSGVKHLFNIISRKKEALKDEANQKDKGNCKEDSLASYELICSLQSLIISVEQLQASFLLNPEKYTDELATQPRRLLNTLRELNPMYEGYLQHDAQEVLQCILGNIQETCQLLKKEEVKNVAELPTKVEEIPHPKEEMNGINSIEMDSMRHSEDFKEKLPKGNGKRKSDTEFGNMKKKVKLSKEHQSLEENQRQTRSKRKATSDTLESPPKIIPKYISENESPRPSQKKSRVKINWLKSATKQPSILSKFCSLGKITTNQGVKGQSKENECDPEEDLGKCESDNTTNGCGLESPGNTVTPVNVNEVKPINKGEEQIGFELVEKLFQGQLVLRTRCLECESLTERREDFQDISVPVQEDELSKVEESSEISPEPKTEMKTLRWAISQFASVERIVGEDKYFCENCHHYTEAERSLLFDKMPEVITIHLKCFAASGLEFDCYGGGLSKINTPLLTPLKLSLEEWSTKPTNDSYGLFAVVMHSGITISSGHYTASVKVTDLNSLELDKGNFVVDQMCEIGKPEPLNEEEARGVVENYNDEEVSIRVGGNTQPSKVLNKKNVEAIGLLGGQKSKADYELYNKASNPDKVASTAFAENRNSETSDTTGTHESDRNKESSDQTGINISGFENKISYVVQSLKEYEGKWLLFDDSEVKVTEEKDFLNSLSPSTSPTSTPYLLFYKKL
USP1/UAF1 (Homo sapiens, UniProt O94782+Q8TAF3), sequence (Q8TAF3 whole entry): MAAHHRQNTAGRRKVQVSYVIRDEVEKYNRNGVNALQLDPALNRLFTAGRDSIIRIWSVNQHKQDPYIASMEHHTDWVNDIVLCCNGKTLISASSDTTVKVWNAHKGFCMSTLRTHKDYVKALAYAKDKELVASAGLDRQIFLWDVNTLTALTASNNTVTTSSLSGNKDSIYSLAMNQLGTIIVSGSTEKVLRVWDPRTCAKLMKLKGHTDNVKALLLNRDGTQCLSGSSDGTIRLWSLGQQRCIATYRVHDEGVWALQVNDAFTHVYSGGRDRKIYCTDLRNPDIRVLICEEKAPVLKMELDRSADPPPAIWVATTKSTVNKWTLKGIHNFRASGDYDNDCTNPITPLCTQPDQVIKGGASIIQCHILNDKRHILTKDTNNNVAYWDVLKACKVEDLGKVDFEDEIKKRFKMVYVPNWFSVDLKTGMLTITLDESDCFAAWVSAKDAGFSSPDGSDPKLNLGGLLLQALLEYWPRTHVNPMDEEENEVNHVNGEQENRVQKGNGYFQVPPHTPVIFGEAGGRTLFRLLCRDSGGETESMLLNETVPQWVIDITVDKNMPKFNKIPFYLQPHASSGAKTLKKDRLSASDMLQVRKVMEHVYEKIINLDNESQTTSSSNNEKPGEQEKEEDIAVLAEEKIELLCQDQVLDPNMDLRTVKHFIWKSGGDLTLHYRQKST
T1 sequence (O94782 whole entry): as the sequence (O94782 whole entry) above
T1 sequence (Q8TAF3 whole entry, further chain): as the sequence (Q8TAF3 whole entry) above
USP1/UAF1 complex, sequence (O94782 whole entry): as the sequence (O94782 whole entry) above
USP1/UAF1 complex, sequence (Q8TAF3 whole entry): as the sequence (Q8TAF3 whole entry) above

Row | IC50 [1] | IC50 [2] | SMILES | EC50 at 48 h [3] | dissociation of the USP1/UAF1 complex [4] | Ub-FANCD2 level, single agent [5] | monoubiquitination of PCNA, single agent [6] | Ki [7] | inhibition mechanism [8] | effect on level of Ub-H2A [9]
1 | 7 ± 1 µM | > 250 µM | OCCN1CCN(CCC=C2c3ccccc3Sc3ccc(C(F)(F)F)cc32)CC1 [Flupenthixol, flupenthixol] | – | – | – | – | – | – | –
2 | – | > 250 µM | O=c1[nH]c2ccccc2n1C1CCN(CCCC(c2ccc(F)cc2)c2ccc(F)cc2)CC1 [Pimozide, pimozide] | 21 µM | no dissociation | increase in Ub-FANCD2 level | significant increase | 0.5 µM | noncompetitively; also recorded: noncompetitive inhibition mechanism | no effect
3 | ≤ 8 µM | ~130 µM | CN1CCN(CCCN2c3ccccc3Sc3ccc(C(F)(F)F)cc32)CC1 [Trifluoperazine, trifluoperazine] | – | – | – | – | – | – | –

Row | SMILES | IC50 [1] | IC50 [2] | EC50 at 48 h [3] | dissociation of the USP1/UAF1 complex [4] | Ub-FANCD2 level, single agent [5] | monoubiquitination of PCNA, single agent [6] | Ki [7] | inhibition mechanism [8] | effect on level of Ub-H2A [9]
4 | CC(C)(Sc1ccc(CCN(CCCCC2CCCCC2)C(=O)NC2CCCCC2)cc1)C(=O)O [GW7647] | – | ~130 µM | 26 µM | no dissociation | increase in Ub-FANCD2 level | significant increase | 0.7 µM | noncompetitively; also recorded: noncompetitive inhibition mechanism | no effect
